“And” between values parts separate entries of the source, which are not always exact repeats. Equal values may be shown once. Inconclusive results and toxic doses are left out. Cut-off read from the data, not from the text of the source: active = T/C of 150% or more; inactive = T/C below 125%.
Tested on: L1210 leukemia ip in BDF1 mice, survival T/C
Assay: NCI In Vivo Anticancer Drug Screen. Data for tumor model L1210 Leukemia (intraperitoneal) in B6D2F1 (BDF1) mice
Settings: higher = longer survival
Summary of the method: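 Read-out is survival time, reported as the treated-group measurement over the vehicle-control measurement.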

[1] = endpoint: mean survival time, dose: 100.0 mg/kg/injection, schedule: Q01DX001 (ip), vehicle: saline
[2] = endpoint: mean survival time, dose: 200.0 mg/kg/injection, schedule: Q01DX001 (ip), vehicle: saline
[3] = endpoint: mean survival time, dose: 400.0 mg/kg/injection, schedule: Q01DX001 (ip), vehicle: saline

Measured: T/C

COc1cc2cc3c4cc(OC)c(OC)cc4cc[n+]3c(C)c2cc1OC (tested in a mixture with another compound)
inactive: endpoint: mean survival time, dose: 5.0 mg/kg/injection, schedule: Q01DX009 (ip), vehicle: saline 105 % of control and 113 % of control | endpoint: mean survival time, dose: 8.0 mg/kg/injection, schedule: Q01DX009 (ip), vehicle: Klucel (hydroxypropylcellulose) (HPC) 114 % of control | endpoint: mean survival time, dose: 10.0 mg/kg/injection, schedule: Q01DX009 (ip), vehicle: saline 105 % of control | endpoint: mean survival time, dose: 16.0 mg/kg/injection, schedule: Q01DX009 (ip), vehicle: clinical formulation 116 % of control | endpoint: mean survival time, dose: 16.0 mg/kg/injection, schedule: Q03HX024 (ip), vehicle: saline 107 % of control | endpoint: mean survival time, dose: 40.0 mg/kg/injection, schedule: Q01DX009 (ip), vehicle: saline 116 % of control | endpoint: mean survival time, dose: 64.0 mg/kg/injection, schedule: Q03HX024 (ip), vehicle: saline 113 % of control | endpoint: mean survival time, dose: 80.0 mg/kg/injection, schedule: Q01DX009 (ip), vehicle: saline 117 % of control | endpoint: mean survival time, dose: 100.0 mg/kg/injection, schedule: Q04DX003 (ip), vehicle: saline with Tween-80 116 % of control | endpoint: mean survival time, dose: 128.0 mg/kg/injection, schedule: Q08DX002 (ip), vehicle: saline 112 % of control | endpoint: mean survival time, dose: 150.0 mg/kg/injection, schedule: Q04DX003 (ip), vehicle: saline with Tween-80 117 % of control | endpoint: mean survival time, dose: 200.0 mg/kg/injection, schedule: Q04DX002 (ip), vehicle: saline 105 % of control | endpoint: mean survival time, dose: 256.0 mg/kg/injection, schedule: Q04DX003 (ip), vehicle: saline 118 % of control | endpoint: median survival time, dose: 8.0 mg/kg/injection, schedule: Q01DX009 (ip), vehicle: Klucel (hydroxypropylcellulose) (HPC) 108 % of control | endpoint: median survival time, dose: 8.0 mg/kg/injection, schedule: Q01DX009 (ip), vehicle: clinical formulation 110 % of control | endpoint: median survival time, dose: 8.0 mg/kg/injection, schedule: Q01DX009 (ip), vehicle: other 117 % of control | endpoint: median survival time, dose: 8.0 mg/kg/injection, schedule: Q01DX009 (ip), vehicle: water 111 % of control | endpoint: median survival time, dose: 8.0 mg/kg/injection, schedule: Q01DX009 (oral), vehicle: other 99 % of control and 113 % of control | endpoint: median survival time, dose: 8.0 mg/kg/injection, schedule: Q01DX009 (sc), vehicle: other 104 % of control | endpoint: median survival time, dose: 16.0 mg/kg/injection, schedule: Q01DX009 (ip), vehicle: Klucel (hydroxypropylcellulose) (HPC) 104 % of control | endpoint: median survival time, dose: 16.0 mg/kg/injection, schedule: Q01DX009 (ip), vehicle: clinical formulation 114 % of control | endpoint: median survival time, dose: 16.0 mg/kg/injection, schedule: Q01DX009 (oral), vehicle: other 98 % of control and 105 % of control | endpoint: median survival time, dose: 16.0 mg/kg/injection, schedule: Q01DX009 (oral), vehicle: saline 100 % of control | endpoint: median survival time, dose: 16.0 mg/kg/injection, schedule: Q01DX009 (sc), vehicle: other 104 % of control | endpoint: median survival time, dose: 25.0 mg/kg/injection, schedule: Q01DX009 (ip), vehicle: Klucel (hydroxypropylcellulose) (HPC) 98 % of control and 99 % of control | endpoint: median survival time, dose: 25.0 mg/kg/injection, schedule: Q01DX009 (ip), vehicle: other 98 % of control and 99 % of control | endpoint: median survival time, dose: 25.0 mg/kg/injection, schedule: Q01DX009 (ip), vehicle: saline 99 % of control and 100 % of control | endpoint: median survival time, dose: 32.0 mg/kg/injection, schedule: Q01DX001 (oral), vehicle: saline 95 % of control and 100 % of control | endpoint: median survival time, dose: 32.0 mg/kg/injection, schedule: Q01DX001 (sc), vehicle: saline 95 % of control | endpoint: median survival time, dose: 32.0 mg/kg/injection, schedule: Q01DX009 (oral), vehicle: other 115 % of control and 116 % of control | endpoint: median survival time, dose: 32.0 mg/kg/injection, schedule: Q01DX009 (oral), vehicle: saline 100 % of control | endpoint: median survival time, dose: 32.0 mg/kg/injection, schedule: Q01DX009 (sc), vehicle: other 100 % of control | endpoint: median survival time, dose: 32.0 mg/kg/injection, schedule: Q01DX009 (sc), vehicle: saline 95 % of control | endpoint: median survival time, dose: 50.0 mg/kg/injection, schedule: Q01DX009 (ip), vehicle: Klucel (hydroxypropylcellulose) (HPC) 100 % of control and 101 % of control | endpoint: median survival time, dose: 50.0 mg/kg/injection, schedule: Q01DX009 (ip), vehicle: other 95 % of control and 96 % of control | endpoint: median survival time, dose: 50.0 mg/kg/injection, schedule: Q01DX009 (ip), vehicle: saline 100 % of control and 101 % of control | endpoint: median survival time, dose: 64.0 mg/kg/injection, schedule: Q01DX001 (ip), vehicle: other 118 % of control | endpoint: median survival time, dose: 64.0 mg/kg/injection, schedule: Q01DX001 (oral), vehicle: other 100 % of control and 101 % of control | endpoint: median survival time, dose: 64.0 mg/kg/injection, schedule: Q01DX001 (oral), vehicle: saline 100 % of control | endpoint: median survival time, dose: 64.0 mg/kg/injection, schedule: Q01DX001 (sc), vehicle: other 114 % of control | endpoint: median survival time, dose: 64.0 mg/kg/injection, schedule: Q01DX009 (oral), vehicle: other 106 % of control and 114 % of control | endpoint: median survival time, dose: 64.0 mg/kg/injection, schedule: Q01DX009 (oral), vehicle: saline 100 % of control | endpoint: median survival time, dose: 64.0 mg/kg/injection, schedule: Q01DX009 (sc), vehicle: other 101 % of control | endpoint: median survival time, dose: 64.0 mg/kg/injection, schedule: Q01DX009 (sc), vehicle: saline 100 % of control | endpoint: median survival time, dose: 64.0 mg/kg/injection, schedule: Q04DX003 (sc), vehicle: saline 100 % of control | endpoint: median survival time, dose: 100.0 mg/kg/injection, schedule: Q01DX009 (ip), vehicle: Klucel (hydroxypropylcellulose) (HPC) 96 % of control and 97 % of control | endpoint: median survival time, dose: 100.0 mg/kg/injection, schedule: Q01DX009 (ip), vehicle: saline 105 % of control and 108 % of control | endpoint: median survival time, dose: 128.0 mg/kg/injection, schedule: Q01DX001 (oral), vehicle: other 100 % of control and 104 % of control | endpoint: median survival time, dose: 128.0 mg/kg/injection, schedule: Q01DX001 (oral), vehicle: saline 100 % of control | endpoint: median survival time, dose: 128.0 mg/kg/injection, schedule: Q01DX001 (sc), vehicle: other 100 % of control | endpoint: median survival time, dose: 128.0 mg/kg/injection, schedule: Q01DX001 (sc), vehicle: saline 100 % of control | endpoint: median survival time, dose: 128.0 mg/kg/injection, schedule: Q01DX009 (ip), vehicle: water 98 % of control | endpoint: median survival time, dose: 128.0 mg/kg/injection, schedule: Q01DX009 (oral), vehicle: other 98 % of control and 110 % of control | endpoint: median survival time, dose: 128.0 mg/kg/injection, schedule: Q01DX009 (oral), vehicle: saline 100 % of control | endpoint: median survival time, dose: 128.0 mg/kg/injection, schedule: Q01DX009 (sc), vehicle: other 100 % of control | endpoint: median survival time, dose: 128.0 mg/kg/injection, schedule: Q01DX009 (sc), vehicle: saline 105 % of control | endpoint: median survival time, dose: 200.0 mg/kg/injection, schedule: Q01DX009 (ip), vehicle: Klucel (hydroxypropylcellulose) (HPC) 95 % of control and 96 % of control | endpoint: median survival time, dose: 200.0 mg/kg/injection, schedule: Q01DX009 (ip), vehicle: other 117 % of control | endpoint: median survival time, dose: 200.0 mg/kg/injection, schedule: Q01DX009 (ip), vehicle: saline 95 % of control and 98 % of control | endpoint: median survival time, dose: 256.0 mg/kg/injection, schedule: Q01DX001 (oral), vehicle: other 99 % of control and 100 % of control | endpoint: median survival time, dose: 256.0 mg/kg/injection, schedule: Q01DX001 (oral), vehicle: saline 100 % of control | endpoint: median survival time, dose: 256.0 mg/kg/injection, schedule: Q01DX001 (sc), vehicle: other 100 % of control | endpoint: median survival time, dose: 256.0 mg/kg/injection, schedule: Q01DX009 (oral), vehicle: other 100 % of control and 110 % of control | endpoint: median survival time, dose: 256.0 mg/kg/injection, schedule: Q01DX009 (oral), vehicle: saline 110 % of control | endpoint: median survival time, dose: 256.0 mg/kg/injection, schedule: Q01DX009 (sc), vehicle: other 99 % of control | endpoint: median survival time, dose: 256.0 mg/kg/injection, schedule: Q01DX009 (sc), vehicle: saline 110 % of control | endpoint: median survival time, dose: 256.0 mg/kg/injection, schedule: Q04DX003 (sc), vehicle: saline 100 % of control | endpoint: median survival time, dose: 400.0 mg/kg/injection, schedule: Q01DX009 (ip), vehicle: Klucel (hydroxypropylcellulose) (HPC) 96 % of control and 97 % of control | endpoint: median survival time, dose: 512.0 mg/kg/injection, schedule: Q01DX001 (oral), vehicle: other 98 % of control and 101 % of control | endpoint: median survival time, dose: 512.0 mg/kg/injection, schedule: Q01DX001 (oral), vehicle: saline 100 % of control | endpoint: median survival time, dose: 512.0 mg/kg/injection, schedule: Q01DX001 (sc), vehicle: other 99 % of control | endpoint: median survival time, dose: 512.0 mg/kg/injection, schedule: Q01DX001 (sc), vehicle: saline 100 % of control | endpoint: median survival time, dose: 512.0 mg/kg/injection, schedule: Q08DX002 (ip), vehicle: other 99 % of control | endpoint: median survival time, dose: 1024.0 mg/kg/injection, schedule: Q01DX001 (oral), vehicle: other 98 % of control and 100 % of control

CCC#CC#CCC
inactive: [1] 97 % of control | endpoint: mean survival time, dose: 100.0 mg/kg/injection, schedule: Q01DX009 (ip), vehicle: saline 96 % of control | [2] 108 % of control | [3] 112 % of control

CCOC(=O)C1=NN(c2ccccc2)C(=O)C1N=Nc1ccc(NS(=O)(=O)c2nccs2)cc1 (centres undefined)
inactive: [1] 102 % of control | [2] 105 % of control | [3] 96 % of control

CN(c1ccccc1Cl)c1ccccc1Cl
inactive: endpoint: mean survival time, dose: 64.0 mg/kg/injection, schedule: Q04DX002 (ip), vehicle: saline with Tween-80 104 % of control | endpoint: mean survival time, dose: 160.0 mg/kg/injection, schedule: Q04DX002 (ip), vehicle: saline with Tween-80 89 % of control | endpoint: mean survival time, dose: 400.0 mg/kg/injection, schedule: Q04DX002 (ip), vehicle: saline with Tween-80 86 % of control
